What follows are molecules tested against human P2X3 receptor (Homo sapiens (Human), UniProt P56373) (assay: P2X3 receptor inhibition, ATP-evoked Fluo-3 calcium fluorescence (FDSS 3000)). Settings: C6BU-1 cell transfected with human P2X3 receptor gene; ATP-evoked Fluo-3 fluorescence.
Type: cell-based
Experimental: Stably expressing cell line (C6BU-1 cell transfected with human P2X3 receptor gene (GenBank accession number Y07683)) was used. The cells were seeded in a 96-well microtiter plate at a concentration of 8000 cells/well and cultured in the medium (8.3% fetal bovine serum, 8.3% horse serum, 1% antibiotic and antifungal in DMEM) for one day at 37° C. under 5% carbon dioxide atmosphere. The medium was replaced with 4 μM Fluo-3-AM solution (pH7.5) containing 20 mM HEPES, 137 mM NaCl, 2.7 mM KCl, 0.9 mM MgCl2, 5.0 mM CaCl2, 5.6 mM D-glucose, 2.5 mM probenecid, 10% BSA, and 0.08% Pluronic F-127, and incubated at 37° C. under 5% dioxide carbon atmosphere for one hour. The plate was washed with washing buffer (20 mM HEPES, 137 mM NaCl, 2.7 mM KCl, 0.9 mM MgCl2, 5.0 mM CaCl2, 5.6 mM D-glucose, 2.5 mM probenecid, pH7.5), and each well was added with 40 μL of this buffer. The plate was placed in High-Throughput Screening System FDSS 3000 (Hamamatsu Photonics K.K.). Measurement of fluorescence intensity by FDSS 3000 was started, and 40 μL of DMSO solutions containing different concentrations of the test compound as prepared by dilution with dilution buffer (20 mM HEPES, 137 mM NaCl, 2.7 mM KCl, 0.9 mM MgCl2, 5.0 mM CaCl2, 5.6 mM D-glucose, 2.5 mM probenecid, 0.1% Pluronic F-127, pH7.5) were dispensed to each well through the built-in automatic dispenser. Five minutes after, 40 nM ATP solution (50 μL) prepared by dilution with the dilution buffer was dispensed through the built-in automatic dispenser, and the measurement of fluorescence intensity was continued for 3 min. For each well, the specific maximum fluorescence intensity was calculated as the ratio of the maximum fluorescence intensity after addition of the ATP solution to the fluorescence intensity at the starting of the measurement. […] FDSS software (Hamamatsu Photonics K.K.) was used for calculation of the specific maximum fluorescence intensity. IC50 was calculated using Microsoft™ Excel™ (Microsoft Corporation) and XLfit™ (ID Business Solutions Ltd.).

human P2X3 receptor, sequence (P56373 whole entry): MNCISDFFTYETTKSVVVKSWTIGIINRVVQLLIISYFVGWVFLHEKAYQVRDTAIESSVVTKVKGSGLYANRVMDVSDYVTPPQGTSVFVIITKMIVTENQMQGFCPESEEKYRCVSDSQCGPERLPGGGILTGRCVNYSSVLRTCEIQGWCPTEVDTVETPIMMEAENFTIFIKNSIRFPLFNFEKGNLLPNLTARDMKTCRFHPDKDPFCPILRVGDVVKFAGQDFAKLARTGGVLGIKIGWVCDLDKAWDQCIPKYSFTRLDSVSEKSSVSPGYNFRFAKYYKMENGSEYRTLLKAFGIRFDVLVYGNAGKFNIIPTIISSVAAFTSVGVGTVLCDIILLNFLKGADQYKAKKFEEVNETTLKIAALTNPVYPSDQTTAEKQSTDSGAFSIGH

| SMILES | IC50 |
| --- | --- |
| CCNC(=O)c1ccc(C(=O)C2=C(O)C(=O)N(c3ccc(-c4ccon4)cc3)C2C(CC)CC)cc1 (centres unmarked) [Compound I-004] | 12 nM |
| COc1ccc(C(=O)C2=C(O)C(=O)N(c3nc4ccc(OC)cc4s3)C2C2CCCCC2)cc1 (centres unmarked) [Compound I-009] | 14 nM |
| COc1ccccc1C1C(C(=O)C(F)(F)F)=C(O)C(=O)N1c1ccc(-c2ccon2)cc1 (centres unmarked) [Compound I-010] | 595 nM |
| COc1cc(F)ccc1C1C(C(=O)C(C)(C)C)=C(O)C(=O)N1c1ccc(-c2ccon2)cc1 (centres unmarked) [Compound I-011] | 270 nM |
| COc1ccc(C(=O)C2=C(O)C(=O)N(c3ccc4[nH]ccc4c3)C2C2CCCCC2)cc1 (centres unmarked) [Compound I-012] | 340 nM |
| COc1ccc(C(=O)C2=C(O)C(=O)N(c3ccc(-c4ccco4)cc3)C2C2CCCCC2)cc1 (centres unmarked) [Compound I-015] | 12 nM |
| O=C(C1=C(O)C(=O)N(c2ccc(-c3ccon3)cc2)C1C1CCCCC1)c1ccc(Br)cc1 (centres unmarked) [Compound I-016] | 79 nM |
| CC(C)(C)C(=O)C1=C(O)C(=O)N(c2ccc(-c3ccon3)cc2)C1c1ccccc1OC(F)(F)F (centres unmarked) [Compound I-019] | 132 nM |
| COc1ccc(C(=O)C2=C(O)C(=O)N(c3ccc(-c4nc(C)no4)cc3)C2C2CCCCC2)cc1 (centres unmarked) [Compound I-020] | 21 nM |
| COc1ccc(F)cc1C1C(C(=O)C(C)(C)C)=C(O)C(=O)N1c1ccc(-c2ccon2)cc1 (centres unmarked) [Compound I-021] | 382 nM |
| O=C(C1=C(O)C(=O)N(c2ccc(-c3ccon3)cc2)C1C1CCCCC1)c1ccc(OC(F)(F)F)cc1 (centres unmarked) [Compound I-026] | 339 nM |
| COc1ccc(C(=O)C2=C(O)C(=O)N(c3ccc(-c4cc(C)no4)cc3)C2c2ccccc2OC)cc1 (centres unmarked) [Compound I-027] | 40 nM |
| COc1ccc(C(=O)C2=C(O)C(=O)N(c3ccc(-c4nc(C)no4)cc3)C2c2ccccc2OC)cc1 (centres unmarked) [Compound I-032] | 160 nM |
| COc1ccc(C(=O)C2=C(O)C(=O)N(c3ccc(-c4cccnc4)cc3)C2c2ccccc2OC)cc1 (centres unmarked) [Compound I-034] | 700 nM |
| COc1ccc2sc(N3C(=O)C(O)=C(C(=O)C(C)(C)C)C3c3ccccc3OC)nc2c1 (centres unmarked) [Compound I-038] | 926 nM |
| CCCc1ccc(N2C(=O)C(O)=C(C(=O)C(C)(C)C)C2c2ccccc2OC)cc1 (centres unmarked) [Compound I-044] | 468 nM |

| SMILES | IC50 |
| --- | --- |
| COc1ccccc1C1C(C(=O)C(C)(C)C)=C(O)C(=O)N1c1ccc(C(C)(C)C)cc1 (centres unmarked) [Compound I-046] | 580 nM |
| COc1ccccc1C1C(C(=O)C(C)(C)C)=C(O)C(=O)N1c1ccc(SC(F)(F)F)cc1 (centres unmarked) [Compound I-047] | 221 nM |
| COCc1ccccc1C1C(C(=O)C(C)(C)C)=C(O)C(=O)N1c1ccc(-c2noc(C)n2)cc1 (centres unmarked) [Compound I-051] | 277 nM |
| COc1ccccc1C1C(C(=O)C(C)(C)C)=C(O)C(=O)N1c1ccc(SC)cc1 (centres unmarked) [Compound I-052] | 187 nM |
| CSc1ccccc1C1C(C(=O)C(C)(C)C)=C(O)C(=O)N1c1ccc(-c2ccon2)cc1 (centres unmarked) [Compound I-057] | 159 nM |
| CC(C)(C)C(=O)C1=C(O)C(=O)N(c2ccc(-c3ccon3)cc2)C1c1ccccc1OC(F)F (centres unmarked) [Compound I-064] | 137 nM |
| COc1ccccc1C1C(C(=O)C(C)(C)C)=C(O)C(=O)N1c1ccc(-c2cccs2)cc1 (centres unmarked) [Compound I-079] | 23 nM |
| CSc1ccc(N2C(=O)C(O)=C(C(=O)C(C)(C)C)C2c2ccccc2OCCO)cc1 (centres unmarked) [Compound I-081] | 151 nM |
| CC(C)(C)C(=O)C1=C(O)C(=O)N(c2ccc(-c3nccs3)cc2)C1c1ccccc1OCCO (centres unmarked) [Compound I-082] | 650 nM |
| COc1ccccc1C1C(C(=O)C(C)(C)C)=C(O)C(=O)N1c1ccc(-c2ccco2)cc1 (centres unmarked) [Compound I-092] | 92 nM |
| COc1ccccc1C1C(C(=O)C(C)(C)C)=C(O)C(=O)N1c1ccc(-c2ccoc2)nc1 (centres unmarked) [Compound I-093] | 756 nM |
| COc1ccccc1C1C2C(=O)C(C)(C)COC2(O)C(=O)N1c1ccc(-c2ccsc2)cn1 (centres unmarked) [Compound I-095] | 195 nM |
| COc1ccccc1C1C(C(=O)C(C)(C)C)=C(N)C(=O)N1c1ccc(-c2ccon2)cc1 (centres unmarked) [Compound I-102] | 134 nM |
| CC(C)(C)C(=O)C1=C(O)C(=O)N(c2ccc(-c3ccsc3)cc2)C1c1cccc[n+]1[O-] (centres unmarked) [Compound I-104] | 424 nM |
| COc1ncccc1C1C(C(=O)C(C)(C)C)=C(O)C(=O)N1c1ccc(-c2ccsc2)nc1 (centres unmarked) [Compound I-108] | 192 nM |
| CC(C)(C)C(=O)C1=C(O)C(=O)N(c2ccc(-c3cccs3)cc2)C1c1cccc[n+]1[O-] (centres unmarked) [Compound I-112] | 388 nM |

Further lines, results first:

| IC50 | SMILES |
| --- | --- |
| 32 nM | CCOC(=O)c1ccc(N2C(=O)C(O)=C(C(=O)C(C)(C)C)C2c2ccccc2OC)cc1 (centres unmarked) [Compound I-001] |
| 24 nM | CCC(CC)C1C(C(=O)c2ccc(C(=O)N(C)C)cc2)=C(O)C(=O)N1c1ccc(-c2noc(C)n2)cc1 (centres unmarked) [Compound I-002] |
| 40 nM | CCC(CC)C1C(C(=O)c2ccc(C(=O)N(C)C)cc2)=C(O)C(=O)N1c1ccc(-c2ccon2)cc1 (centres unmarked) [Compound I-003] |
| 247 nM | CC(C)(C)C(=O)C1=C(O)C(=O)N(c2ccc(-c3ccon3)cc2)C1c1cccc[n+]1[O-] (centres unmarked) [Compound I-005] |
| 27 nM | CCCC(CCC)C1C(C(=O)c2ccc(CO)cc2)=C(O)C(=O)N1c1ccc(-c2ccon2)cc1 (centres unmarked) [Compound I-006] |
| 100 nM | CCCCC(CCCC)C1C(C(=O)c2ccc(CO)cc2)=C(O)C(=O)N1c1ccc(-c2ccon2)cc1 (centres unmarked) [Compound I-007] |
| 14 nM | CCC(CC)C1C(C(=O)c2ccc(C(=O)NCCO)cc2)=C(O)C(=O)N1c1ccc(-c2ccon2)cc1 (centres unmarked) [Compound I-008] |
| 134 nM | COc1ccc(C(=O)C2=C(O)C(=O)N(c3ccc(-c4cccn4C)cc3)C2C2CCCCC2)cc1 (centres unmarked) [Compound I-014] |
| 75 nM | COc1ccc(C(=O)C2=C(O)C(=O)N(c3ccc(C4=NCCS4)cc3)C2c2ccccc2OC)cc1 (centres unmarked) [Compound I-028] |
| 160 nM | COc1ccc(C(=O)C2=C(O)C(=O)N(c3ccc(-c4nccs4)cc3)C2c2ccccc2OC)cc1 (centres unmarked) [Compound I-029] |
| 53 nM | COc1ccc(C(=O)C2=C(O)C(=O)N(c3ccc(-c4noc(C)n4)cc3)C2c2ccccc2OC)cc1 (centres unmarked) [Compound I-030] |
| 700 nM | COc1ccccc1C1C(C(=O)C2(CO)CCCCC2)=C(O)C(=O)N1c1ccc(-c2ccon2)cc1 (centres unmarked) [Compound I-031] |
| 53 nM | COc1ccc(C(=O)C2=C(O)C(=O)N(c3ccc(-c4nnc(C)o4)cc3)C2c2ccccc2OC)cc1 (centres unmarked) [Compound I-033] |
| 954 nM | COc1ccccc1C1C(C(=O)C(C)(C)C)=C(O)C(=O)N1c1ccc(C(C)C)cc1 (centres unmarked) [Compound I-037] |
| 12 nM | COc1ccc(C(=O)C2=C(O)C(=O)N(c3ccc(-c4ccoc4)cc3)C2C2CCCCC2)cc1 (centres unmarked) [Compound I-039] |
| 642 nM | COCc1ccccc1C1C(C(=O)C(C)(C)C)=C(O)C(=O)N1c1ccc(-c2cc(C)no2)cc1 (centres unmarked) [Compound I-050] |
| 596 nM | CC(C)(C)C(=O)C1=C(O)C(=O)N(c2ccc(-c3ccon3)cc2)C1c1cccc2c1OCO2 (centres unmarked) [Compound I-055] |
| 260 nM | CCOc1ccccc1C1C(C(=O)C(C)(C)C)=C(O)C(=O)N1c1ccc(-c2ccon2)cc1 (centres unmarked) [Compound I-059] |
| 434 nM | COc1ncccc1C1C(C(=O)C(C)(C)C)=C(O)C(=O)N1c1ccc(SC)cc1 (centres unmarked) [Compound I-066] |
| 305 nM | COc1ccccc1C1C(C(=O)C(C)(C)CO)=C(O)C(=O)N1c1ccc(SC)cc1 (centres unmarked) [Compound I-068] |
| 519 nM | CN(C)c1ccccc1C1C(C(=O)C(C)(C)C)=C(O)C(=O)N1c1ccc(-c2ccon2)cc1 (centres unmarked) [Compound I-070] |
| 352 nM | COc1ccccc1C1C(C(=O)CC(C)(C)C)=C(O)C(=O)N1c1ccc(-c2ccon2)cc1 (centres unmarked) [Compound I-072] |
| 48 nM | COc1ccccc1C1C(C(=O)C(C)(C)C)=C(O)C(=O)N1c1ccc(-c2ccoc2)cc1 (centres unmarked) [Compound I-077] |
| 48 nM | CC(C)(C)C(=O)C1=C(O)C(=O)N(c2ccc(-c3ccco3)cc2)C1c1ccccc1OCCO (centres unmarked) [Compound I-085] |
| 341 nM | CCc1ccccc1C1C(C(=O)C(C)(C)C)=C(O)C(=O)N1c1ccc(-c2ccon2)cc1 (centres unmarked) [Compound I-091] |
| 301 nM | COc1ccccc1C1C(C(=O)C(C)(C)C)=C(O)C(=O)N1c1ccc(-c2cc[nH]c2)cc1 (centres unmarked) [Compound I-094] |
| 370 nM | COCCOc1ccccc1C1C(C(=O)C(C)(C)C)=C(O)C(=O)N1c1ccc(-c2ccon2)cc1 (centres unmarked) [Compound I-098] |
| 355 nM | CC(C)(C)C(=O)C1=C(O)C(=O)N(c2ccc(-c3ccon3)cc2)C1c1ccccc1OCC#N (centres unmarked) [Compound I-103] |
| 97 nM | CC(C)Oc1ccccc1C1C(C(=O)C(C)(C)C)=C(O)C(=O)N1c1ccc(-c2ccon2)cc1 (centres unmarked) [Compound I-105] |
| 624 nM | CC(C)(C)C(=O)C1=C(O)C(=O)N(c2ccc(-c3ccon3)cc2)C1c1ccccc1S(C)(=O)=O (centres unmarked) [Compound I-111] |
